US9889125B2 (TAKEDA PHARMACEUTICALS U.S.A., INC., priority 2011, dated 2018)
Where a name gives a salt, the structure may show the parent alone.

Assays:
[1] = test system: platelet aggregation with ADP; assay: Platelet function test: Aggregometry with adenosine diphosphate (ADP), maximum platelet aggregation (MPA); type: in vivo, human; details: for MPA with 5 μM ADP, Mean (SD) / MPA with 20 μM ADP, Mean (SD): 9 days, 24 Hours Post Day 9 Dose
Excerpt: (§1) ANOVA models with sequence, subject within sequence, period and regimen were fitted to the pharmacodynamic parameters.

[2] = test system: P2Y12 platelet reactivity; assay: Platelet function test: VerifyNow, P2Y12 platelet reactivity unit (PRU); type: in vivo, human; details: 9 days, 24 Hours Post Day 9 Dose
Excerpt: as §1

[3] = test system: platelet function (Vasodilator-stimulated phosphoprotein, VASP); assay: Platelet function test: Vasodilator-stimulated phosphoprotein (VASP), platelet reactivity index (PRI); type: in vivo, human; details: for Difference in the LS-Means of PRI (with PPI vs without PPI): 9 days, 24 hours post Day 9 dose
Excerpt: as §1

CYP2C19 = molecular target: T1, CYP2C19 (Homo sapiens, UniProt P33261); assay: CYP2C19 inhibition by PPIs
T1 construct: The subject was a CYP2C19 extensive metabolizer (wt/wt); from tissue; host or cells: Liver of healthy study subjects (in vivo), CYP2C19 wt/wt genotype

[4] = PPI 80 mg with clopidogrel 300-mg loading dose and 75 mg/day maintenance dose; healthy subjects; cited from earlier work
[5] = PPI group lansoprazole 30 mg: clopidogrel 75 mg QD alone or clopidogrel + PPI
[6] = clopidogrel with lansoprazole 30 mg vs clopidogrel alone
[7] = PPI group dexlansoprazole 60 mg: clopidogrel 75 mg QD alone or clopidogrel + PPI
[8] = PPI group esomeprazole 40 mg: clopidogrel 75 mg QD alone or clopidogrel + PPI
[9] = PPI group omeprazole 80 mg: clopidogrel 75 mg QD alone or clopidogrel + PPI
[10] = clopidogrel with dexlansoprazole 60 mg vs clopidogrel alone

T1 sequence (P33261 whole entry): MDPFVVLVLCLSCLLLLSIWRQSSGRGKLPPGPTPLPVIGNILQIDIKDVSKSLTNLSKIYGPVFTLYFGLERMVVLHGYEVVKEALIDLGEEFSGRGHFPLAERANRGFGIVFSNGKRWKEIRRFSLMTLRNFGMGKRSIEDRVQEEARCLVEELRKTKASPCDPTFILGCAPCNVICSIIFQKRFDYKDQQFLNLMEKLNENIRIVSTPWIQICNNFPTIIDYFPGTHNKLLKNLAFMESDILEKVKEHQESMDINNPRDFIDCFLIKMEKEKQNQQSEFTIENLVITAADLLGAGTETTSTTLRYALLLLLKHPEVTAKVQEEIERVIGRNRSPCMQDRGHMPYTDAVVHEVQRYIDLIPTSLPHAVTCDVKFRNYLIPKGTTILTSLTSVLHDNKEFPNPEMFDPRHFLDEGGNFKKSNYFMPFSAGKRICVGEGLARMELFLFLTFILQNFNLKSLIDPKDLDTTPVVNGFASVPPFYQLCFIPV

Structure (SMILES)	MPA with 5 μM ADP, Mean (SD) [1, 5]	MPA with 20 μM ADP, Mean (SD) [1, 5]	PRU, Mean (SD) [2, 5]	CYP2C19 inhibition (strength of inhibitor) (CYP2C19)	MPA with 5 μM ADP, Mean (SD) [1, 7]	MPA with 20 μM ADP, Mean (SD) [1, 7]	MPA with 5 μM ADP, Mean (SD) [1, 8]	MPA with 20 μM ADP, Mean (SD) [1, 8]	MPA with 5 μM ADP, Mean (SD) [1, 9]	MPA with 20 μM ADP, Mean (SD) [1, 9]	PRU, Mean (SD) [2, 7]	PRU, Mean (SD) [2, 8]	PRU, Mean (SD) [2, 9]	also measured
Cc1c(OCC(F)(F)F)ccnc1C[S+]([O-])c1nc2ccccc2[nH]1 (stereo not drawn) [Lansoprazole]	30.8 (9.35) %	41.6 (12.65) %	131.8 (71.27) %	weak CYP2C19 inhibitors										Difference in the LS-Means of PRI (with PPI vs without PPI) ([3]; clopidogrel 75 mg QD with vs without lansoprazole 30 mg QD): 4.1016; effect on clopidogrel PD in terms of PRI (90% CI of LS-Mean difference against 15% boundary) [3, 6]: equivalence in PD was demonstrated; increase in mean PRI [3, 6]: 4.1%
COC(=O)[C@H](c1ccccc1Cl)N1CCc2sccc2C1 [Clopidogrel, methyl (+)-(S)-α-(2-chlorophenyl)-6,7-dihydrothieno[3,2-c]pyridine-5 (4H)-acetate sulfate (1:1)]	28.1 (6.76) %	36.7 (9.11) %	114.9 (56.44) %		34.6 (14.23) %	43.1 (13.24) %	29.3 (10.41) %	39.3 (13.22) %	34.2 (12.32) %	43.5 (14.00) %	124.2 (79.10) %	121.1 (50.64) %	133.0 (67.62) %	
Cc1c(OCC(F)(F)F)ccnc1C[S@@+]([O-])c1nc2ccccc2[nH]1 [Dexlansoprazole]				weak CYP2C19 inhibitors	36.2 (16.87) %	46.3 (16.93) %					146.7 (84.45) %			difference in MPA compared with clopidogrel alone, statistical significance ([1]; clopidogrel with dexlansoprazole 60 mg, either MPA (5 and 20 μM ADP)): not statistically significant; Difference in the LS-Means of PRI (with PPI vs without PPI) ([3]; clopidogrel 75 mg QD with vs without dexlansoprazole 60 mg QD): 2.0474; effect on clopidogrel PD in terms of PRI (90% CI of LS-Mean difference against 15% boundary) [3, 10]: equivalence in PD was demonstrated; increase in mean PRI [3, 10]: 2.0%
COc1ccc2nc([S@@+]([O-])Cc3ncc(C)c(OC)c3C)[nH]c2c1 [Esomeprazole]				potent CYP2C19 inhibitors			38.2 (17.77) %	47.9 (15.77) %				177.6 (55.37) %		Difference in the LS-Means of PRI (with PPI vs without PPI) ([3]; clopidogrel 75 mg QD with vs without esomeprazole 40 mg QD): 11.4437; effect on clopidogrel PD in terms of PRI (90% CI of LS-Mean difference against 15% boundary) ([3]; clopidogrel with esomeprazole 40 mg vs clopidogrel alone): very similar to omeprazole 80 mg
COc1ccc2[nH]c([S+]([O-])Cc3ncc(C)c(OC)c3C)nc2c1 (stereo not drawn) [Omeprazole]				potent CYP2C19 inhibitors					42.5 (14.74) %	53.5 (13.75) %			201.5 (59.65) %	metabolic DDI with clopidogrel [4]: a metabolic DDI was found to exist; Difference in the LS-Means of PRI (with PPI vs without PPI) ([3]; clopidogrel 75 mg QD with vs without omeprazole 80 mg QD): 11.0407
